# According to article PMC6207715, “Determination of extended substrate specificity of the MALT1 as a strategy for the design of potent substrates and activity-based probes” (Scientific Reports, 2018):
# Read-outs that look alike come from different tables or passages of the source. Non-standard residues stand in square brackets, D forms with d. *: point of attachment. ACC = NC(=O)Cc1cc(=O)oc2cc(N*)ccc12; Abu = CC[C@H](N)C(=O)O
# Assays:
# Format in all cases: biochemical
# MALT1 [1] = target: T1, MALT1 (Homo sapiens, UniProt Q9UDY8); experiment: Kinetic assay of ACC fluorogenic substrates (kcat, Km, kcat/Km)
# T1 sequence (Q9UDY8 1-824): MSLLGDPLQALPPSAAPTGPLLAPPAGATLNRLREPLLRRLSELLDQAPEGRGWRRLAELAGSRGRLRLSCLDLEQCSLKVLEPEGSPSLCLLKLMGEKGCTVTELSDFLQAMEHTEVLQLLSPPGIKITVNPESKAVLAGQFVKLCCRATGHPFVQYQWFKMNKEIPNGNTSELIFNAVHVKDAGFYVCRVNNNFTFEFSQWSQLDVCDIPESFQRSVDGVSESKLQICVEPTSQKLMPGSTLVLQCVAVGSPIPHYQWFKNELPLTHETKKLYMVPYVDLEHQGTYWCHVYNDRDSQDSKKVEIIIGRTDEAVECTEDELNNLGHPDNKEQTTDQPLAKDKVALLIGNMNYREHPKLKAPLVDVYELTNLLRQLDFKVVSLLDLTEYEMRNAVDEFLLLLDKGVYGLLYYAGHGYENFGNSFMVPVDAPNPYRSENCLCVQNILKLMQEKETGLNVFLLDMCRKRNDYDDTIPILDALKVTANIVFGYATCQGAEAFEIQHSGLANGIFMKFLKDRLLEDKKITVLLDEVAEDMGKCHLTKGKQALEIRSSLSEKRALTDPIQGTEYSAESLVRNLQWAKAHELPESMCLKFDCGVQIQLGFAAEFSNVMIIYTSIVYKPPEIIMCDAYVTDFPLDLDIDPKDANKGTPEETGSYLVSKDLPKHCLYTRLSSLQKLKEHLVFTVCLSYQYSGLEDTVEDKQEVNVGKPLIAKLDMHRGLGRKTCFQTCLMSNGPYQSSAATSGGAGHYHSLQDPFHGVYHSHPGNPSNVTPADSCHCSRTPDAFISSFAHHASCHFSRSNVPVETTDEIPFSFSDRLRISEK
# Procedure: Figure 2 MALT1 substrate activity. Panel a. kcat/Km values for MALT1 substrates compared with that of the reference substrate (ALVSR). MALT1 was incubated at 37 °C for 30 minutes and added to the wells containing the substrate at varying concentrations. Relative fluorescence units were measured over time at excitation/emission wavelengths of 355/460 nm for at least 10 minutes. The data represent averages of three separate measurements, and error bars represent standard deviations. Panel b. Structure of our best (lower panel) and the reference (upper panel) MALT1 fluorogenic substrate.
# (§1) All kinetic assays were performed with a Spectra Max Gemini XPS spectrofluorimeter (Molecular Devices) and 96-well Corning plates. The measurement characteristics were as follows: 37 °C, excitation/emission wavelength of 355/460 nm, cutoff of 455 nm, and varying concentrations of substrates and enzyme. The assay buffer was prepared at 23 °C and contained 50 mM HEPES (2-[4-(2-hydroxyethyl)piperazin-1-yl]ethanesulfonic acid), 100 mM NaCl, 0.9 M sodium citrate and 10 mM dithiothreitol (DTT) (pH 7.5). MALT1^FL or MALT1^CD were preincubated for 30 minutes at 37 °C before being added to wells containing substrate. Next, the increase in fluorescence was recorded over the time. Only the linear portions of the curves were used for calculations. The kcat and Km values were calculated using GraphPad Prism and Microsoft Excel software. All measurements were repeated three times, and the data presented are averages of these replicates. […]
# was carried out after each coupling and Fmoc deprotection step. The N terminus was protected with an acetyl group using 5 eq AcOH, 5 eq HBTU, and 5 eq DIPEA in DMF.
# After solvent removal, the resin was washed six times with DMF in order to remove excess reagents, three times with DCM, and three times with MeOH and then dried over P2O5 and cleaved from the resin with a TFA/TIPS/H2O mixture (%, v/v/v, 95:2.5:2.5).
# The crude product was purified by HPLC and lyophilized. The purity of each substrate was confirmed by analytical HPLC, and each substrate was analyzed using HRMS.
# (§2) Substrates were dissolved in peptide-grade DMSO to a concentration of 20 mM and stored at -80°C until use.
# (§3) Calculation of kcat, Km and kcat/Km values
# (§4) Kinetic parameters were calculated under the same conditions as the library with slight modification. The total reaction volume in each well was 100 μL. The substrate and enzyme concentrations used ranged from 3.90 μM to 150 μM and 40 μM, respectively.
# (§5) The increase in relative fluorescence units was monitored for 20-30 minutes, and only the linear parts of the curves were used to determine the rate of the reaction. The kcat and Km values were calculated using GraphPad Prism software. All measurements were repeated three times using the appropriate concentration of the enzyme, and the data presented are averages of these repetitions.
# MALT1^FL [2] = target: T2, MALT1^FL (Homo sapiens, UniProt Q9UDY8); experiment: Kinetic assay of IQF substrates, full-length enzyme; conditions: IQF substrate, ACC/Lys(Dnp) pair; 37 °C, assay buffer pH 7.5; 355/460 nm; average of three
# T2 construct: treating full-length MALT1 (MALT1^FL), the MALT1 catalytic domain (MALT1^CD)
# T2 sequence (Q9UDY8 1-824): T1 sequence (Q9UDY8 1-824)
# Procedure: as §1, §2, §3, §4, §5
# MALT1^CD [3] = target: T3, MALT1^CD (Homo sapiens, UniProt Q9UDY8); experiment: Kinetic assay of IQF substrates, catalytic domain; conditions: IQF substrate, ACC/Lys(Dnp) pair; 37 °C, assay buffer pH 7.5; 355/460 nm; average of three
# T3 construct: the MALT1 catalytic domain (MALT1^CD)
# T3 sequence (Q9UDY8 348-562 limits assumed): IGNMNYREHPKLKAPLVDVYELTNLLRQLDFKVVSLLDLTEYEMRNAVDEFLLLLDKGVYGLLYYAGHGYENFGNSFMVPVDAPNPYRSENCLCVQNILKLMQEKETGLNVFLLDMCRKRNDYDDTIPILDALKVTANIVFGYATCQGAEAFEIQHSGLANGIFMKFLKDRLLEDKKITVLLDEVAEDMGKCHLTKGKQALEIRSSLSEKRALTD
# Procedure: as §1, §2, §3, §4, §5
# MALT1 [4] = target: T1, MALT1; experiment: Inhibition kinetics of activity-based probe (kobs/I)
# MALT1^C/A = experiment: MALT1 labeling with PKG105, SDS-PAGE fluorescence scan; conditions: 100 nM enzyme; probe 500, 250, 125 nM; 30 minutes, 37 °C; gel scan 700 nm
# Procedure: (§6) MALT1^FL, MALT1^CD or MALT1^C/A at 100 nM were incubated with PKG105 at three different concentrations: 500 nM, 250 nM and 125 nM for 30 minutes at 37 °C. As a control, MALT1^FL without the probe was incubated in the assay buffer. Samples were denatured in 3 × SDS-loading buffer for 5 minutes at 95 °C. SDS-PAGE was performed under reducing conditions for 37 minutes at 165 V. The fluorescence signal in the gel was measured using a Li-Cor (Odyssey®) instrument at a wavelength of 700 nm.
# MALT1^CD [5] = target: T3, MALT1^CD; experiment: as above; conditions: 100 nM enzyme; probe 500, 250, 125 nM; 30 minutes, 37 °C; gel scan 700 nm
# Procedure: as §6
# MALT1^FL [6] = target: T2, MALT1^FL; experiment: as above; conditions: 100 nM enzyme; probe 500, 250, 125 nM; 30 minutes, 37 °C; gel scan 700 nm
# Procedure: as §6
# [7] = tested on: MALT1 in RAW 264.7 cell lysates; experiment: Labeling of active MALT1 in RAW 264.7 cell lysates; conditions: RAW 264.7 lysates; probe 8 to 500 nM; 30 minutes, 37 °C; gel scan 700 nm
# Procedure: Figure 3 Probe to detect active MALT1. Panel a. Structure of the MALT1 probe (PKG105). Panel b. RAW 264.7 cell lysates were incubated with PKG105 at various concentrations. As a control, lysates were pretreated with mepazine, followed by incubation with probe. Lysates that were not treated with mepazine were also used. SDS-PAGE was performed at 165 V. Fluorescence was scanned using the 700 nm channel (LI-COR). Gels are representative of at least two replicates. TEXT PRINTED IN THE PICTURE: (a) PKG105: kobs/I = 92,000 M^-1s^-1
# Twenty-five microliters of RAW 264.7 cell lysates (from 5 * 10^6 cells/mL) were incubated with PKG105 at concentrations ranging from 8 to 500 nM. As controls, cells that were not incubated with probe or cells that were pretreated with 1 µL of 10 mM mepazine were treated with 500 nM PKG105. The lysates were incubated with the probe for 30 minutes at 37 °C, followed by denaturation in 3 × SDS-loading buffer for 5 minutes at 95 °C. SDS-PAGE was performed under reducing conditions for 37 minutes at 165 V. The fluorescence signal in the gel was measured using a Li-Cor (Odyssey®) at a wavelength of 700 nm.
# MALT1 [8] = target: T1, MALT1; experiment: P5 library screening (Ac-P5-LVSR-ACC); conditions: 100 nM MALT1, 1 µM substrate, 37 °C; 355/460 nm; average of three
# Procedure: Figure 1 MALT1 S5-S2 substrate preferences. Panel a. Substrate preferences of the MALT1 S4-S2 pockets; 100 μM library component was treated with 130 nM active site-titrated MALT1 in assay buffer containing 50 mM HEPES, 100 mM NaCl, 0.9 M sodium citrate and 10 mM DTT at pH 7.5. Panel b. Structures of the preferred amino acid residues at the P4-P2 positions of MALT1. Panel c. MALT1 P5 specificity. Specificity profile of MALT1 was determined with the library of general structure Ac-P5-LVSR-ACC; 100 nM MALT1 was incubated at 37 °C for 10 minutes, followed by the addition of 1 µM substrate. Relative fluorescence units were measured over time at excitation/emission wavelengths of 355/460 nm for at least 10 minutes. The data represent averages of three separate measurements, and error bars represent standard deviations.
# [9] = 37 °C, 50 mM HEPES, 100 mM NaCl, 0.9 M sodium citrate, 10 mM DTT, pH 7.5, substrate 3.90-150 μM, ACC fluorescence 355/460 nm, average of three measurements
substance,measurement,setting,value
Ac-TLVSR-{ACC} (SMILES CC(=O)N[C@H](C(=O)N[C@@H](CC(C)C)C(=O)N[C@H](C(=O)N[C@@H](CO)C(=O)N[C@@H](CCCNC(=N)N)C(=O)Nc1ccc2c(CC(N)=O)cc(=O)oc2c1)C(C)C)[C@@H](C)O) [Ac-Thr-LVSR-ACC],Km,MALT1 [1]; [9],22.4 ± 9.94 µM
same,kcat,MALT1 [1]; [9],0.12 ± 0.0050 s⁻¹
Ac-[Abu]LVSR-{ACC} (SMILES CC[C@H](NC(C)=O)C(=O)N[C@@H](CC(C)C)C(=O)N[C@H](C(=O)N[C@@H](CO)C(=O)N[C@@H](CCCNC(=N)N)C(=O)Nc1ccc2c(CC(N)=O)cc(=O)oc2c1)C(C)C) [Ac-Abu-LVSR-ACC],Km,MALT1 [1]; [9],22.15 ± 0.01 µM
same,kcat,MALT1 [1]; [9],0.19 ± 0.0295 s⁻¹
Ac-Phe(guan)-LVPR-ACC-OH,kcat/Km,MALT1 [1]; [9],"28,000 s^−1M^−1"
same,rate of substrate hydrolysis (kcat/Km),MALT1 [1]; estimated,"28,000 M^−1s^−1"
same,kcat/Km relative to the best reported substrate to date,MALT1 [1]; times higher,approximately 3.5 times
H2N-ACC-Ahx-A-L-V-S-R–G-Nva-K(Dnp)G-OH [Substrate M1],"kcat/Km, MALT1^FL",MALT1^FL [2],4.8 * 10^3 ± 362 M^−1s^−1
same,"kcat/Km, MALT1^CD",MALT1^CD [3],3.5 * 10^3 ± 165 M^−1s^−1
Cy5-Phe(guan)-Leu-Val-Pro-Arg-AOMK [PKG105],kobs/I,MALT1 [4],"92,000 s^−1M^−1"
same,kobs/I,MALT1 [4]; printed in Figure 3a,"92,000 M^-1s^-1"
same,kobs/I relative to the best MALT1 inhibitor in the literature,"MALT1 [4]; times higher than 9,300 s^−1M^−1",approximately 10 times
same,labeling of MALT1^C/A catalytic mutant by probe,MALT1^C/A,no labeling was observed
same,labeling of MALT1^CD by probe,MALT1^CD [5],detected enzyme activity
same,labeling of MALT1^FL by probe,MALT1^FL [6],detected enzyme activity
same,detection of active MALT1 in cell lysates by probe,[7],detected active MALT1
Ac-[dA]LVSR-{ACC} (SMILES CC(=O)N[C@H](C)C(=O)N[C@@H](CC(C)C)C(=O)N[C@H](C(=O)N[C@@H](CO)C(=O)N[C@@H](CCCNC(=N)N)C(=O)Nc1ccc2c(CC(N)=O)cc(=O)oc2c1)C(C)C) [Ac-D-Ala-LVSR-ACC],Km,MALT1 [1]; [9],24.4 ± 6.97 µM
same,kcat,MALT1 [1]; [9],0.076 ± 0.034 s⁻¹
Ac-Y(Bzl)-L-V-S-R-ACC-OH,activity at the P5 position in the library screen,MALT1 [8],least active
